Laboratory results: ChEMBL document CHEMBL2157869, “N'-substituted-2'-O,3'-N-carbonimidoyl bridged macrolides: novel anti-inflammatory macrolides without antimicrobial activity” (J Med Chem, 2012)
≈ marks a conversion by molar mass, not a printed value. Calls of active or inactive are those of the source. The rule behind the calls is not given here.

Legend:
Streptococcus pyogenes = test: Antibacterial activity against Streptococcus pyogenes ATCC 700294 by CLSI broth microdilution method; format: functional
[1] = Antiinflammatory activity in mouse splenocytes assessed as inhibition of LPS-induced IL-6 production at 50 uM preincubated for 2 hrs prior to LPS challenge by sandwich ELISA; format: functional; conditions: Splenocyte
[2] = Cytotoxicity against human THP1 cells assessed as cell viability at 50 uM after 24 hrs by MTT assay; format: cell-based, THP-1; conditions: read-out: Activity
[3] = Antiinflammatory activity in mouse splenocytes assessed as inhibition of LPS-induced IL-6 production in mouse splenocytes at 25 uM preincubated for 2 hrs prior to LPS challenge by sandwich ELISA; format: functional; conditions: Splenocyte
[4] = Antiinflammatory activity in mouse splenocytes assessed as inhibition of LPS-induced IL-6 production at 12 uM preincubated for 2 hrs prior to LPS challenge by sandwich ELISA; format: functional; conditions: Splenocyte
Cytochrome P450 3A4 [5] = molecular target: T1, Cytochrome P450 3A4 (Homo sapiens, UniProt P08684)
Description: Inhibition of human recombinant CYP3A4 using DEF as substrate preincubated for 5 to 10 mins before substrate addition

Cytochrome P450 3A4 [6] = molecular target: T1, Cytochrome P450 3A4; remark: listed apart in the source
Description: Inhibition of human recombinant CYP3A4 using 7-BQ as substrate preincubated for 5 to 10 mins before substrate addition

[7] = molecular target: Transcription factor Jun (Mus musculus) (UniProt P05627); test: Inhibition of AP1-mediated mediated IL-1beta production in LPS-induced mouse pulmonary neutrophila model
[8] = Cmax in cystic fibrosis patient plasma at 500 mg; format: ADME, organism-based; design: dose 500 mg; conditions: human
[9] = Cmax in cystic fibrosis patient blood at 500 mg; format: ADME, organism-based; design: dose 500 mg; conditions: human, whole blood
[10] = Cmax in lung cancer patient serum at 2 gram, po qd; format: ADME, organism-based; design: route oral; conditions: human
[11] = Cmax in lung cancer patient epithelial lining fluid at 2 gram, po qd; format: ADME, organism-based; design: route oral; conditions: human
Mus musculus [12] = test: Antiinflammatory activity in BALB/cJ mouse assessed as decrease in LPS-induced neutrophil number in bronchoalveolar lavage fluid at 200 mg/kg, ip administered 2 hrs prior to LPS challenge measured after 24 hrs post LPS challenge; format: functional, organism-based; design: dose 200 mg/kg; conditions: Lung
Streptococcus pneumoniae = test: Antibacterial activity against Streptococcus pneumoniae ATCC 49619 by CLSI broth microdilution method; format: functional
Staphylococcus aureus = test: Antibacterial activity against Staphylococcus aureus ATCC 13709 by CLSI broth microdilution method; format: functional
Haemophilus influenzae = test: Antibacterial activity against Haemophilus influenzae ATCC 49247 by CLSI broth microdilution method; format: functional
Moraxella catarrhalis = test: Antibacterial activity against Moraxella catarrhalis ATCC 23246 by CLSI broth microdilution method; format: functional
Mus musculus [13] = test: Antiinflammatory activity in BALB/cJ mouse assessed as decrease in LPS-induced total cell number in bronchoalveolar lavage fluid at 200 mg/kg, ip administered 2 hrs prior to LPS challenge measured after 24 hrs post LPS challenge; format: functional, organism-based; design: dose 200 mg/kg; conditions: Lung

T1 sequence (P08684 whole entry): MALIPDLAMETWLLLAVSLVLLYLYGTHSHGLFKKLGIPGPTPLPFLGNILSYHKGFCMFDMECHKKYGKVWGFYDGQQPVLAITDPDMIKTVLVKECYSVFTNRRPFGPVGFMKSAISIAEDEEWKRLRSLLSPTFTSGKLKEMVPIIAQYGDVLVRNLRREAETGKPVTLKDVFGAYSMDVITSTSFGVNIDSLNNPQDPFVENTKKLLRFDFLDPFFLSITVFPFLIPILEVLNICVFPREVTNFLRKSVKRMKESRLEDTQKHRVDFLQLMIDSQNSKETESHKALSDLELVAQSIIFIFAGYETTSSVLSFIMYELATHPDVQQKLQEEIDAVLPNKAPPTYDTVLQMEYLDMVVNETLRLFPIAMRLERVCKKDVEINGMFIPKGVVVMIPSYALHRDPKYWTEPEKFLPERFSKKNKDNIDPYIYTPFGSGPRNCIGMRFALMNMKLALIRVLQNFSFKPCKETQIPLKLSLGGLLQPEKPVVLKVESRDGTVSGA
Sequence of Transcription factor Jun (Mus musculus) (P05627 whole entry): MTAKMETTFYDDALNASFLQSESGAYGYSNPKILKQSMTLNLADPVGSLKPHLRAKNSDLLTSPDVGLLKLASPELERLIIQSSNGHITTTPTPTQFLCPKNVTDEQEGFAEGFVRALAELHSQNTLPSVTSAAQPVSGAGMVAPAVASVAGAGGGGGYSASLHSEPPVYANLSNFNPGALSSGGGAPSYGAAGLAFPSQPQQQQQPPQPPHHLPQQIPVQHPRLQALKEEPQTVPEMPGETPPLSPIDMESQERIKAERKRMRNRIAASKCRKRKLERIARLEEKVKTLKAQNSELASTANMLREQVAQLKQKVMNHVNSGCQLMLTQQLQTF

Compound	MIC (Streptococcus pyogenes) [µg/mL]	inhibition at 50 µM [1] [%]	viability at 24 h, 50 µM [2] [%]	inhibition at 25 µM [3] [%]	inhibition at 12 µM [4] [%]	IC50 (Cytochrome P450 3A4 [5]) [nM]	IC50 (Cytochrome P450 3A4 [6]) [nM]	other results
CC[C@H]1OC(=O)[C@H](C)[C@@H](O[C@H]2C[C@@](C)(OC)[C@@H](O)[C@H](C)O2)[C@H](C)[C@@H](O[C@@H]2O[C@H](C)C[C@H]3[C@H]2O/C(=N\C(C)C)N3C)[C@](C)(OC)C[C@@H](C)NC(=O)[C@H](C)[C@@H](O)[C@]1(C)O	> 64	67	0	55	45	1000	> 10000	
CC[C@H]1OC(=O)[C@H](C)[C@@H](O[C@H]2C[C@@](C)(OC)[C@@H](O)[C@H](C)O2)[C@H](C)[C@@H](O[C@@H]2O[C@H](C)C[C@H](N(C)C)[C@H]2O)[C@](C)(O)C[C@@H](C)CN(C)[C@H](C)[C@@H](O)[C@]1(C)O [AZITHROMYCIN]	< 0.125	84	0	74	61			inhibition [7]: Active; Cmax [8]: 670 ng/mL; Cmax [9]: 2010 ng/mL; Cmax [10]: 940 ng/mL; Cmax [11]: 3200 ng/mL; Activity (Mus musculus [12]): Active; MIC (Streptococcus pneumoniae): < 0.125 µg/mL; MIC (Staphylococcus aureus): 0.5 µg/mL (≈ 0.668 µM); MIC (Haemophilus influenzae): 2 µg/mL (≈ 2.67 µM); MIC (Moraxella catarrhalis): < 0.125 µg/mL; Activity (Mus musculus [13]): Active
CC/N=C1\O[C@H]2[C@H](O[C@@H]3[C@@H](C)[C@H](O[C@H]4C[C@@](C)(OC)[C@@H](O)[C@H](C)O4)[C@@H](C)C(=O)O[C@H](CC)[C@@](C)(O)[C@H](O)[C@@H](C)C(=O)[C@H](C)C[C@@]3(C)O)O[C@H](C)C[C@@H]2N1C	> 64	86	0	80	70	500	5700	
CC[C@H]1OC(=O)[C@H](C)[C@@H](O[C@H]2C[C@@](C)(OC)[C@@H](O)[C@H](C)O2)[C@H](C)[C@@H](O[C@@H]2O[C@H](C)C[C@H]3[C@H]2O/C(=N/C(C)C)N3C)[C@](C)(OC)C[C@@H](C)N(C)C[C@H](C)[C@@H](O)[C@]1(C)O								MIC (Streptococcus pneumoniae): 1 µg/mL (≈ 1.23 µM)
CC[C@H]1OC(=O)[C@H](C)[C@@H](O[C@H]2C[C@@](C)(OC)[C@@H](O)[C@H](C)O2)[C@H](C)[C@@H](O[C@@H]2O[C@H](C)C[C@H]3[C@H]2O/C(=N/Cc2ccccc2)N3C)[C@](C)(OC)C[C@@H](C)NC(=O)[C@H](C)[C@@H](O)[C@]1(C)O								MIC (Streptococcus pneumoniae): 1 µg/mL (≈ 1.16 µM)
CC[C@H]1OC(=O)[C@H](C)[C@@H](O[C@H]2C[C@@](C)(OC)[C@@H](O)[C@H](C)O2)[C@H](C)[C@@H](O[C@@H]2O[C@H](C)C[C@H]3[C@H]2O/C(=N\C(C)C)N3C)[C@](C)(O)C[C@@H](C)C(=O)[C@H](C)[C@@H](O)[C@]1(C)O	> 64	94	0	81	61			
CC[C@H]1OC(=O)[C@H](C)[C@@H](O[C@H]2C[C@@](C)(OC)[C@@H](O)[C@H](C)O2)[C@H](C)[C@@H](O[C@@H]2O[C@H](C)C[C@H]3[C@H]2O/C(=N/C(C)C)N3C)[C@@](C)(OC)C/C(C)=C2/O[C@@]1(C)C=C2C								MIC (Moraxella catarrhalis): 8 µg/mL (≈ 10.5 µM)
CC/N=C1/O[C@H]2[C@H](O[C@@H]3[C@@H](C)[C@H](O[C@H]4C[C@@](C)(OC)[C@@H](O)[C@H](C)O4)[C@@H](C)C(=O)O[C@H](CC)[C@]4(C)C=C(C)/C(=C(/C)C[C@]3(C)OC)O4)O[C@H](C)C[C@@H]2N1C								MIC (Moraxella catarrhalis): 8 µg/mL (≈ 10.7 µM)
CC/N=C1\O[C@H]2[C@H](O[C@@H]3[C@@H](C)[C@H](O[C@H]4C[C@@](C)(OC)[C@@H](O)[C@H](C)O4)[C@@H](C)C(=O)O[C@H](CC)[C@@](C)(O)[C@H](O)[C@@H](C)C(=O)[C@H](C)C[C@@]3(C)OC)O[C@H](C)C[C@@H]2N1C	> 64	73	0	64	55		2900	
CC[C@H]1OC(=O)[C@H](C)[C@@H](O[C@H]2C[C@@](C)(OC)[C@@H](O)[C@H](C)O2)[C@H](C)[C@@H](O[C@@H]2O[C@H](C)C[C@H]3[C@H]2O/C(=N/Cc2ccccc2)N3C)[C@@](C)(OC)C/C(C)=C2/O[C@@]1(C)C=C2C								MIC (Staphylococcus aureus): 8 µg/mL (≈ 9.84 µM)
CC[C@H]1OC(=O)[C@H](C)[C@@H](O[C@H]2C[C@@](C)(OC)[C@@H](O)[C@H](C)O2)[C@H](C)[C@@H](O[C@@H]2O[C@H](C)C[C@H]3[C@H]2O/C(=N/Cc2ccccc2)N3C)[C@](C)(O)C[C@@H](C)CN(C)[C@H](C)[C@@H](O)[C@]1(C)O								MIC (Streptococcus pneumoniae): 1 µg/mL (≈ 1.18 µM)
CC[C@H]1OC(=O)[C@H](C)[C@@H](O[C@H]2C[C@@](C)(OC)[C@@H](O)[C@H](C)O2)[C@H](C)[C@@H](O[C@@H]2O[C@H](C)C[C@H]3[C@H]2O/C(=N/c2cccc4ccccc24)N3C)[C@](C)(O)C[C@@H](C)CN(C)[C@H](C)[C@@H](O)[C@]1(C)O								MIC (Streptococcus pneumoniae): 1 µg/mL (≈ 1.13 µM)
CC/N=C1/O[C@H]2[C@H](O[C@@H]3[C@@H](C)[C@H](O[C@H]4C[C@@](C)(OC)[C@@H](O)[C@H](C)O4)[C@@H](C)C(=O)O[C@H](CC)[C@@]4(C)OC5(O[C@@]3(C)C[C@H]5C)[C@H](C)[C@@H]4C)O[C@H](C)C[C@@H]2N1C								Activity (Streptococcus pneumoniae): Active; Activity (Streptococcus pyogenes): Active; Activity (Staphylococcus aureus): Active; Activity (Haemophilus influenzae): Active; Activity (Moraxella catarrhalis): Active
CC[C@H]1OC(=O)[C@H](C)[C@@H](O[C@H]2C[C@@](C)(OC)[C@@H](O)[C@H](C)O2)[C@H](C)[C@@H](O[C@@H]2O[C@H](C)C[C@H]3[C@H]2O/C(=N\CCCSC)N3C)[C@](C)(OC)C[C@@H](C)C(=O)N[C@H](C)[C@@H](O)[C@]1(C)O	> 64	67	0	48	36	1330	> 10000	
CC[C@H]1OC(=O)[C@H](C)[C@@H](O[C@H]2C[C@@](C)(OC)[C@@H](O)[C@H](C)O2)[C@H](C)[C@@H](O[C@@H]2O[C@H](C)C[C@H]3[C@H]2O/C(=N\C(C)(C)C)N3C)[C@](C)(OC)C[C@@H](C)C(=O)N[C@H](C)[C@@H](O)[C@]1(C)O	> 64	86	0	62	52			
CC[C@H]1OC(=O)[C@H](C)[C@@H](O[C@H]2C[C@@](C)(OC)[C@@H](O)[C@H](C)O2)[C@H](C)[C@@H](O[C@@H]2O[C@H](C)C[C@H]3[C@H]2O/C(=N/c2ccc(OC)cc2)N3C)[C@](C)(OC)C[C@@H](C)C(=O)N[C@H](C)[C@@H](O)[C@]1(C)O	> 64	71	6	44	39	700	4700	
CC/N=C1\O[C@H]2[C@H](O[C@@H]3[C@@H](C)[C@H](O[C@H]4C[C@@](C)(OC)[C@@H](O)[C@H](C)O4)[C@@H](C)C(=O)O[C@H](CC)[C@@](C)(O)[C@H](O)[C@@H](C)N(C)C[C@H](C)C[C@@]3(C)O)O[C@H](C)C[C@@H]2N1C	> 64	99	0	96	86	7900	> 10000	Activity (Mus musculus [12]): Active; Activity (Mus musculus [13]): Active
CC[C@H]1OC(=O)[C@H](C)[C@@H](O[C@H]2C[C@@](C)(OC)[C@@H](O)[C@H](C)O2)[C@H](C)[C@@H](O[C@@H]2O[C@H](C)C[C@H]3[C@H]2O/C(=N\CCCN(C)C)N3C)[C@](C)(OC)C[C@@H](C)C(=O)[C@H](C)[C@@H](O)[C@]1(C)O	> 64	74	0	62	55	700	8000	
